PubChem BioAssay AID2060892 (Molecular Pharmacology Branch, DTP, NCI, 2025)

Tested on: HOP-62 complex spheroids with HUVEC/MSC, viability
Assay: Anticancer human tumor HOP-62 cell line growth inhibition [RAS];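 note: spheroids exposed to agents for seven days before readout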;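 for viability, T/C: 100% = DMSO vehicle control viability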
Conditions: for IC50: curve of first compound; for viability, T/C: stronger effect = lower value
Summary of the method: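 Multi-cell-type spheroids: tumor cells plus HUVEC endothelial cells and mesenchymal stem cells. RAS-pathway inhibitors were combined with targeted agents, each dosed in half-log steps down from clinical Cmax, or from 10 microM when Cmax was unknown.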

[1] = second compound 0.000949 µM, first compound 0.0316 µM
[2] = second compound 0.000949 µM, first compound 0.1 µM
[3] = second compound 0.000949 µM, first compound 0.316 µM
[4] = second compound 0.000949 µM, first compound 1 µM
[5] = second compound 0.000949 µM, first compound 3.16 µM
[6] = second compound 0.000949 µM, first compound 10 µM
[7] = second compound 0.003 µM, first compound 0.0316 µM
[8] = second compound 0.003 µM, first compound 0.1 µM
[9] = second compound 0.003 µM, first compound 0.316 µM
[10] = second compound 0.003 µM, first compound 1 µM
[11] = second compound 0.003 µM, first compound 3.16 µM
[12] = second compound 0.003 µM, first compound 10 µM
[13] = second compound 0.00949 µM, first compound 0.0316 µM
[14] = second compound 0.00949 µM, first compound 0.1 µM
[15] = second compound 0.00949 µM, first compound 0.316 µM
[16] = second compound 0.00949 µM, first compound 1 µM
[17] = second compound 0.00949 µM, first compound 3.16 µM
[18] = second compound 0.00949 µM, first compound 10 µM
[19] = second compound 0.03 µM, first compound 0.0316 µM
[20] = second compound 0.03 µM, first compound 0.1 µM
[21] = second compound 0.03 µM, first compound 0.316 µM
[22] = second compound 0.03 µM, first compound 1 µM
[23] = second compound 0.03 µM, first compound 3.16 µM
[24] = second compound 0.03 µM, first compound 10 µM
[25] = second compound 0.0949 µM, first compound 0.0316 µM
[26] = second compound 0.0949 µM, first compound 0.1 µM
[27] = second compound 0.0949 µM, first compound 0.316 µM
[28] = second compound 0.0949 µM, first compound 1 µM
[29] = second compound 0.0949 µM, first compound 3.16 µM
[30] = second compound 0.0949 µM, first compound 10 µM
[31] = second compound 0.3 µM, first compound 0.0316 µM
[32] = second compound 0.3 µM, first compound 0.1 µM
[33] = second compound 0.3 µM, first compound 0.316 µM
[34] = second compound 0.3 µM, first compound 1 µM
[35] = second compound 0.3 µM, first compound 3.16 µM
[36] = second compound 0.3 µM, first compound 10 µM

CC1(O)CCCC1n1c(=O)c(C(F)F)cc2cnc(NC3CCN(S(C)(=O)=O)CC3)nc21 (stereo not given) + CCn1c(-c2cccnc2C(C)OC)c2c3cc(ccc31)N1CCOC(CC(NC(=O)C(C(C)C)N(C)C(=O)C3(F)CCN(C(=O)C#CC(C)(C)N(C)C)CC3)C(=O)N3CCCC(N3)C(=O)OCC(C)(C)C2)C1
IC50 (second compound 0.000949 µM): 4.84 µM
IC50 (second compound 0.003 µM): 4.47 µM
IC50 (second compound 0.00949 µM): 3.4 µM
IC50 (second compound 0.03 µM): 1.17 µM
IC50 (second compound 0.0949 µM): 1.63 µM
IC50 (second compound 0.3 µM): 0.777 µM
viability, T/C [1]: 107%
viability, T/C [2]: 87.9%
viability, T/C [3]: 58%
viability, T/C [4]: 86.6%
viability, T/C [5]: 77.8%
viability, T/C [6]: 2.45%
viability, T/C [7]: 94.1%
viability, T/C [8]: 65.2%
viability, T/C [9]: 54.5%
viability, T/C [10]: 67.6%
viability, T/C [11]: 70.9%
viability, T/C [12]: 2.8%
viability, T/C [13]: 83%
viability, T/C [14]: 59.1%
viability, T/C [15]: 61%
viability, T/C [16]: 60%
viability, T/C [17]: 55.9%
viability, T/C [18]: 2.82%
viability, T/C [19]: 89.5%
viability, T/C [20]: 80.2%
viability, T/C [21]: 57.5%
viability, T/C [22]: 60.5%
viability, T/C [23]: 33%
viability, T/C [24]: 2.88%
viability, T/C [25]: 80.6%
viability, T/C [26]: 67.1%
viability, T/C [27]: 56.8%
viability, T/C [28]: 59.7%
viability, T/C [29]: 43.4%
viability, T/C [30]: 2.21%
viability, T/C [31]: 71.7%
viability, T/C [32]: 63.1%
viability, T/C [33]: 56.5%
viability, T/C [34]: 51.9%
viability, T/C [35]: 21.2%
viability, T/C [36]: 2.92%

CCC(CC)c1cc(NC2CCC(N)C2)n2nccc2n1 (stereo not given) + CCn1c(-c2cccnc2C(C)OC)c2c3cc(ccc31)N1CCOC(CC(NC(=O)C(C(C)C)N(C)C(=O)C3(F)CCN(C(=O)C#CC(C)(C)N(C)C)CC3)C(=O)N3CCCC(N3)C(=O)OCC(C)(C)C2)C1
IC50 (second compound 0.000949 µM): 1.96 µM
IC50 (second compound 0.003 µM): 1.98 µM
IC50 (second compound 0.00949 µM): 1.86 µM
IC50 (second compound 0.03 µM): 1.84 µM
IC50 (second compound 0.0949 µM): 1.77 µM
IC50 (second compound 0.3 µM): 1.7 µM
viability, T/C [1]: 126%
viability, T/C [2]: 107%
viability, T/C [3]: 96.3%
viability, T/C [4]: 110%
viability, T/C [5]: 6.83%
viability, T/C [6]: 1.38%
viability, T/C [7]: 116%
viability, T/C [8]: 101%
viability, T/C [9]: 109%
viability, T/C [10]: 118%
viability, T/C [11]: 7.77%
viability, T/C [12]: 0.66%
viability, T/C [13]: 91.4%
viability, T/C [14]: 96.5%
viability, T/C [15]: 101%
viability, T/C [16]: 121%
viability, T/C [17]: 5.15%
viability, T/C [18]: 0.65%
viability, T/C [19]: 98.5%
viability, T/C [20]: 99.6%
viability, T/C [21]: 100%
viability, T/C [22]: 113%
viability, T/C [23]: 2.86%
viability, T/C [24]: 0.81%
viability, T/C [25]: 91.7%
viability, T/C [26]: 98.4%
viability, T/C [27]: 96.9%
viability, T/C [28]: 104%
viability, T/C [29]: 1.59%
viability, T/C [30]: 0.78%
viability, T/C [31]: 82.5%
viability, T/C [32]: 86.8%
viability, T/C [33]: 95%
viability, T/C [34]: 95%
viability, T/C [35]: 3.22%
viability, T/C [36]: 1.08%

CCN1CCN(Cc2ccc(Nc3ncc(F)c(-c4cc(F)c5nc(C)n(C(C)C)c5c4)n3)nc2)CC1 + CCn1c(-c2cccnc2C(C)OC)c2c3cc(ccc31)N1CCOC(CC(NC(=O)C(C(C)C)N(C)C(=O)C3(F)CCN(C(=O)C#CC(C)(C)N(C)C)CC3)C(=O)N3CCCC(N3)C(=O)OCC(C)(C)C2)C1
IC50 (second compound 0.000949 µM): > 1 µM
IC50 (second compound 0.003 µM): > 1 µM
IC50 (second compound 0.00949 µM): > 1 µM
IC50 (second compound 0.03 µM): > 1 µM
IC50 (second compound 0.0949 µM): > 1 µM
IC50 (second compound 0.3 µM): > 1 µM
viability, T/C (second compound 0.000949 µM, first compound 0.00316 µM): 106%
viability, T/C (second compound 0.000949 µM, first compound 0.01 µM): 116%
viability, T/C [1]: 86.5%
viability, T/C [2]: 108%
viability, T/C [3]: 107%
viability, T/C [4]: 92.3%
viability, T/C (second compound 0.003 µM, first compound 0.00316 µM): 102%
viability, T/C (second compound 0.003 µM, first compound 0.01 µM): 99.7%
viability, T/C [7]: 68.9%
viability, T/C [8]: 97%
viability, T/C [9]: 97.5%
viability, T/C [10]: 76.8%
viability, T/C (second compound 0.00949 µM, first compound 0.00316 µM): 100%
viability, T/C (second compound 0.00949 µM, first compound 0.01 µM): 81.7%
viability, T/C [13]: 84.2%
viability, T/C [14]: 87.9%
viability, T/C [15]: 88.6%
viability, T/C [16]: 79.2%
viability, T/C (second compound 0.03 µM, first compound 0.00316 µM): 96.6%
viability, T/C (second compound 0.03 µM, first compound 0.01 µM): 86.7%
viability, T/C [19]: 82.8%
viability, T/C [20]: 85.3%
viability, T/C [21]: 78.6%
viability, T/C [22]: 89.5%
viability, T/C (second compound 0.0949 µM, first compound 0.00316 µM): 87.8%
viability, T/C (second compound 0.0949 µM, first compound 0.01 µM): 97.7%
viability, T/C [25]: 79.7%
viability, T/C [26]: 74.4%
viability, T/C [27]: 68.3%
viability, T/C [28]: 97.4%
viability, T/C (second compound 0.3 µM, first compound 0.00316 µM): 90.2%
viability, T/C (second compound 0.3 µM, first compound 0.01 µM): 78.9%
viability, T/C [31]: 79.7%
viability, T/C [32]: 70.2%
viability, T/C [33]: 74.3%
viability, T/C [34]: 91.4%

Cc1nc(N2CCC3(CC2)COC(C)C3N)c(CO)nc1Sc1ccnc(N)c1Cl (stereo not given) + CCn1c(-c2cccnc2C(C)OC)c2c3cc(ccc31)N1CCOC(CC(NC(=O)C(C(C)C)N(C)C(=O)C3(F)CCN(C(=O)C#CC(C)(C)N(C)C)CC3)C(=O)N3CCCC(N3)C(=O)OCC(C)(C)C2)C1
IC50 (second compound 0.000949 µM): 2.92 µM
IC50 (second compound 0.003 µM): 0.541 µM
IC50 (second compound 0.00949 µM): 0.738 µM
IC50 (second compound 0.03 µM): 0.465 µM
IC50 (second compound 0.0949 µM): 0.302 µM
IC50 (second compound 0.3 µM): 0.213 µM
viability, T/C [1]: 120%
viability, T/C [2]: 101%
viability, T/C [3]: 60.3%
viability, T/C [4]: 65.7%
viability, T/C [5]: 63.3%
viability, T/C [6]: 31.3%
viability, T/C [7]: 107%
viability, T/C [8]: 80.1%
viability, T/C [9]: 42.9%
viability, T/C [10]: 55.6%
viability, T/C [11]: 35.3%
viability, T/C [12]: 18.3%
viability, T/C [13]: 80.7%
viability, T/C [14]: 59.4%
viability, T/C [15]: 83.1%
viability, T/C [16]: 41.3%
viability, T/C [17]: 23.9%
viability, T/C [18]: 22.4%
viability, T/C [19]: 77.8%
viability, T/C [20]: 70.5%
viability, T/C [21]: 58.5%
viability, T/C [22]: 34.9%
viability, T/C [23]: 20.1%
viability, T/C [24]: 20.9%
viability, T/C [25]: 81.4%
viability, T/C [26]: 64.2%
viability, T/C [27]: 51.5%
viability, T/C [28]: 35.5%
viability, T/C [29]: 19.8%
viability, T/C [30]: 23%
viability, T/C [31]: 84.8%
viability, T/C [32]: 66.1%
viability, T/C [33]: 41.6%
viability, T/C [34]: 26.5%
viability, T/C [35]: 20.3%
viability, T/C [36]: 19.4%

NC1c2ccccc2OC12CCN(c1cnc3c(N4CCCc5ncccc54)n[nH]c3n1)CC2 (stereo not given) + CCn1c(-c2cccnc2C(C)OC)c2c3cc(ccc31)N1CCOC(CC(NC(=O)C(C(C)C)N(C)C(=O)C3(F)CCN(C(=O)C#CC(C)(C)N(C)C)CC3)C(=O)N3CCCC(N3)C(=O)OCC(C)(C)C2)C1
IC50 (second compound 0.000949 µM): 0.183 µM
IC50 (second compound 0.003 µM): 0.429 µM
IC50 (second compound 0.00949 µM): 0.0527 µM
IC50 (second compound 0.03 µM): 0.0646 µM
IC50 (second compound 0.0949 µM): 0.0391 µM
IC50 (second compound 0.3 µM): < 0.0316 µM
viability, T/C [1]: 91.2%
viability, T/C [2]: 70.6%
viability, T/C [3]: 27.8%
viability, T/C [4]: 44.5%
viability, T/C [5]: 33.4%
viability, T/C [6]: 19.4%
viability, T/C [7]: 69.4%
viability, T/C [8]: 48.5%
viability, T/C [9]: 60.5%
viability, T/C [10]: 23.9%
viability, T/C [11]: 19.3%
viability, T/C [12]: 9.81%
viability, T/C [13]: 60%
viability, T/C [14]: 35.3%
viability, T/C [15]: 29.6%
viability, T/C [16]: 22.7%
viability, T/C [17]: 14.8%
viability, T/C [18]: 13.2%
viability, T/C [19]: 64.1%
viability, T/C [20]: 42.1%
viability, T/C [21]: 24%
viability, T/C [22]: 28.3%
viability, T/C [23]: 12%
viability, T/C [24]: 14.6%
viability, T/C [25]: 53.3%
viability, T/C [26]: 35.5%
viability, T/C [27]: 20.7%
viability, T/C [28]: 16.8%
viability, T/C [29]: 11.5%
viability, T/C [30]: 14.7%
viability, T/C [31]: 44.4%
viability, T/C [32]: 28.6%
viability, T/C [33]: 18.4%
viability, T/C [34]: 15.6%
viability, T/C [35]: 13.5%
viability, T/C [36]: 15.2%
